# According to patent US5445941A, “Method for screening anti-osteoporosis agents” (Eli Lilly and Company, priority 1993, dated 1995):
# Experiments:
# TGFβ-3 promoter [1] = assay: TGFβ-3 activation in CHO cells (pB-301 and pRSVER, CAT); assay type: cell-based, hamster; details: 24 h, 0 M 10.6
# TGFβ-3 promoter [2] = assay: TGFβ-3 activation in MCF-7 cells (pTGFβ-301LUC, luciferase); assay type: cell-based, human; details: 24 h, 0 M 7.8
# Procedure: Cultures of MCF-7 cells were transiently transfected with pTGFβ-301LUCas described in Example IV.
# After 24 hours of treatment with the hormonal preparation (or the vehicle control), the cells were washed, harvested, lysed and assayed for LUC activity according to the method of Example VI.
# [3] = system: LDL receptor messenger RNA; details: in vivo; cited from earlier work
# TGFβ-3 promoter [4] = assay: Dose response of TGFβ-3 promoter (pB-301) CAT induction in MG63 cells with pRSVER; details: for CAT activity: vehicle 0.85
# Procedure: For each group of twelve cultures, the particular estrogen or antiestrogen compound was tested in replicate cultures at […], varying in tenfold increments from 10^-9 M to 10^-5 M, as well as one set of replicate cultures treated with vehicle only (for a total of twelve cultures per experimental treatment). Hormones were dissolved in ethanol and applied to the cultures in media as described above. The four estrogens and antiestrogens tested were:
# a. 17β-estradiol (Sigma Chemical Corp., St. Louis, Mo.);
smiles,measurement,setting,value
"C[C@]12CC[C@@H]3c4ccc(O)cc4CC[C@H]3[C@@H]1CC[C@@H]2O [estradiol, 17β-estradiol]",CAT activity,TGFβ-3 promoter [1]; 10^-5 M,33.3
same,CAT activity,TGFβ-3 promoter [1]; 10^-6 M,32.9
same,CAT activity,TGFβ-3 promoter [1]; 10^-7 M,29.4
same,CAT activity,TGFβ-3 promoter [1]; 10^-8 M,22.6
same,CAT activity,TGFβ-3 promoter [1]; 10^-9 M,11.9
same,Luciferase activity,TGFβ-3 promoter [2]; 10^-5 M,122 thousands of units
same,Luciferase activity,TGFβ-3 promoter [2]; 10^-6 M,101.3 thousands of units
same,Luciferase activity,TGFβ-3 promoter [2]; 10^-7 M,107.3 thousands of units
same,Luciferase activity,TGFβ-3 promoter [2]; 10^-8 M,9.1 thousands of units
same,Luciferase activity,TGFβ-3 promoter [2]; 10^-9 M,19.2 thousands of units
same,LDL receptor messenger RNA (in words),[3],induces LDL receptor messenger RNA in vivo
same,CAT activity,"TGFβ-3 promoter [4]; 10^-5 M, 24 h",3.4
same,CAT activity,"TGFβ-3 promoter [4]; 10^-6 M, 24 h",4.3
same,CAT activity,"TGFβ-3 promoter [4]; 10^-7 M, 24 h",1.6
same,CAT activity,"TGFβ-3 promoter [4]; 10^-8 M, 24 h",1.1
same,CAT activity,"TGFβ-3 promoter [4]; 10^-9 M, 24 h",0.96
same,ED50 (in words),TGFβ-3 promoter [4]; MG63 cells,two orders of magnitude higher than that of raloxifene
same,TGFβ-3 promoter activation (in words),TGFβ-3 promoter [4]; MG63 cells,least potent inducer
same,induction of reporter gene transcription/expression,"TGFβ-3 promoter [4]; mg63 cells, 24 h",4 fold
